Assay results taken from patent US8940724B2, “Quinoline derivitives and their uses” (Amgen Inc., priority 2009, dated 2015).

Molecular target: T1, PI3Kδ (Homo sapiens, UniProt O00329)
T1 construct: Full length p110 subunits of PI3k α, β and δ, N-terminally labeled with polyHis tag; polyHis (N); made in house; host or cells: Sf9 insect cells (baculovirus)
Test: PI3Kδ Alphascreen assay
Format: biochemical

T1 sequence (O00329 whole entry): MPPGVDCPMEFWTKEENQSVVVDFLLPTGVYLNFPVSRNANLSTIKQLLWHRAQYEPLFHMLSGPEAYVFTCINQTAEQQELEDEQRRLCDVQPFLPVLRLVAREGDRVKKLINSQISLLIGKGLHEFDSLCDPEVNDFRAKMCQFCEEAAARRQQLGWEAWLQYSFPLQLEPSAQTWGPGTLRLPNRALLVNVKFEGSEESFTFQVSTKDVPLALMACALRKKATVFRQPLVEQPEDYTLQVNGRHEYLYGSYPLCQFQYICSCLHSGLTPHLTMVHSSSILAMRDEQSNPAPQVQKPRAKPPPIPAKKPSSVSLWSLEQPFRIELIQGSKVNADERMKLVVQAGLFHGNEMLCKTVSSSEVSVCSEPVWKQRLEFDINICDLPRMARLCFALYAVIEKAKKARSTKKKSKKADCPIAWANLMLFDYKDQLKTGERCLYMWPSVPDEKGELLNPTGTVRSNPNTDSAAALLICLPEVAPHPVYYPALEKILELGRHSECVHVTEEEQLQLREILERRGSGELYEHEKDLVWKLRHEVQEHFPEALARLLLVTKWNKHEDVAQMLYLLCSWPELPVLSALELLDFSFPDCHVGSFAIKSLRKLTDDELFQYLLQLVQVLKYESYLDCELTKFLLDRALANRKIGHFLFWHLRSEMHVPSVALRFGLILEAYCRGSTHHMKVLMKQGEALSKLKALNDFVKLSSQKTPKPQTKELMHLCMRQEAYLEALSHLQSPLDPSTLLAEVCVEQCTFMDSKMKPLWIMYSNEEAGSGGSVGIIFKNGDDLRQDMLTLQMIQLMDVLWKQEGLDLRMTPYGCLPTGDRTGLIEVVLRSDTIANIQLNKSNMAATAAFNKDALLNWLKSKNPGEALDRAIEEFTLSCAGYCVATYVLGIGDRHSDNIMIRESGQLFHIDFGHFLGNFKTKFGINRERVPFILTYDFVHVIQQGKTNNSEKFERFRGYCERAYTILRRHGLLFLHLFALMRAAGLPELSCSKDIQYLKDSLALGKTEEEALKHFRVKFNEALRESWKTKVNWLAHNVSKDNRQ
T1 sequence (P27986 whole entry partner): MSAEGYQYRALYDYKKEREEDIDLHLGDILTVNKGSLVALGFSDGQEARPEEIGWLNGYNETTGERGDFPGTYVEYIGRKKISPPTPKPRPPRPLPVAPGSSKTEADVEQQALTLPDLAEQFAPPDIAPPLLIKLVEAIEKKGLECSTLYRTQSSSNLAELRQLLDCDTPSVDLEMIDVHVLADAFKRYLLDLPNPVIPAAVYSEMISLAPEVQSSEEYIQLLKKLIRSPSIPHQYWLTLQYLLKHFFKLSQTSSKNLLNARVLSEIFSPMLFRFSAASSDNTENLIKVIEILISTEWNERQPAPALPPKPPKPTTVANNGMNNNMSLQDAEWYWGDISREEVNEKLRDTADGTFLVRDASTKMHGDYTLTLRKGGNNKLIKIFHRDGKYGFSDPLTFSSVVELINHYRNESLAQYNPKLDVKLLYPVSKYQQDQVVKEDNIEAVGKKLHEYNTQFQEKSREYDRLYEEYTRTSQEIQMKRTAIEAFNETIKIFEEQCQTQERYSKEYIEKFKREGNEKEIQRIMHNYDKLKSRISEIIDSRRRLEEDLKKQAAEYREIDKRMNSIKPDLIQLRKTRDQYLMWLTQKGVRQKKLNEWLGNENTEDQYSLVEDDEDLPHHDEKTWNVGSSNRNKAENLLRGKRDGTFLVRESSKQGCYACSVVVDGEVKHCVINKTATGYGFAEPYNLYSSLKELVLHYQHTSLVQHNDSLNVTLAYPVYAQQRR

Compound	Ki [nM]
Cc1c(-c2cccnc2)nc2cc(F)cc(F)c2c1Nc1cc(N2CCOCC2)cnc1N1CCOCC1 [N-(2,5-di-4-morpholinyl-3-pyridinyl)-5,7-difluoro-3-methyl-2-(3-pyridinyl)-4-quinolinamine]	8.43
Cc1c(N2CCN(S(=O)(=O)CC(C)C)CC2)nc2cc(F)cc(F)c2c1Nc1cncc(N2CCOCC2)c1 [5,7-difluoro-3-methyl-2-(4-((2-methylpropyl)sulfonyl)-1-piperazinyl)-N-(5-(4-morpholinyl)-3-pyridinyl)-4-quinolinamine]	71.3
Cc1c(-c2ccccn2)nc2ncccc2c1Nc1cncc(N2CCOCC2)c1 [3-methyl-N-(5-(4-morpholinyl)-3-pyridinyl)-2-(2-pyridinyl)-1,8-naphthyridin-4-amine]	716
Cc1c(N2CCN(C(C)C)C(=O)C2)nc2cc(F)cc(F)c2c1Nc1cncc(N2CCOCC2)c1 [4-(5,7-difluoro-3-methyl-4-((5-(4-morpholinyl)-3-pyridinyl)-amino)-2-quinolinyl)-1-(1-methylethyl)-2-piperazinone]	24
Cc1c(-c2ccccn2)nc2cc(F)cc(F)c2c1Nc1cc(N2CCOCC2)cnc1-c1ccc(C#N)cc1 [4-(3-((5,7-difluoro-3-methyl-2-(2-pyridinyl)-4-quinolinyl)-amino)-5-(4-morpholinyl)-2-pyridinyl)benzonitrile]	5.51
Cc1c(N2CCOCC2)nc2cc(F)cc(F)c2c1Nc1cncc(C2=CCOCC2)c1 [N-(5-(3,6-dihydro-2H-pyran-4-yl)-3-pyridinyl)-5,7-difluoro-3-methyl-2-(4-morpholinyl)-4-quinolinamine]	68.3
Cc1c(N2CCN(C(=O)c3cccnc3)CC2)nc2cc(F)cc(F)c2c1Nc1cncc(N2CCOCC2)c1 [5,7-difluoro-3-methyl-N-(5-(4-morpholinyl)-3-pyridinyl)-2-(4-(3-pyridinylcarbonyl)-1-piperazinyl)-4-quinolinamine]	343
CNC(=O)N1CCN(c2nc3cc(F)cc(F)c3c(Nc3cncc(N4CCOCC4)c3)c2C)CC1 [4-(5,7-difluoro-3-methyl-4-((5-(4-morpholinyl)-3-pyridinyl)-amino)-2-quinolinyl)-N-methyl-1-piperazinecarboxamide]	16.5
Cc1c(N2CCN(CC(C)(C)C)CC2)nc2cc(F)cc(F)c2c1Nc1cncc(N2CCOCC2)c1 [2-(4-(2,2-dimethylpropyl)-1-piperazinyl)-5,7-difluoro-3-methyl-N-(5-(4-morpholinyl)-3-pyridinyl)-4-quinolinamine]	98.8
CCN1CCN(c2nc3cc(F)cc(F)c3c(Nc3cncc(N4CCOCC4)c3)c2C)CC1=O [4-(5,7-difluoro-3-methyl-4-((5-(4-morpholinyl)-3-pyridinyl)-amino)-2-quinolinyl)-1-ethyl-2-piperazinone]	13.2
COc1cncc(-c2ncc(N3CCOCC3)cc2N(C(=O)C(F)(F)F)c2c(C)c(-c3ccccn3)nc3cc(F)cc(F)c23)c1 [N-(5,7-difluoro-3-methyl-2-(2-pyridinyl)-4-quinolinyl)-2,2,2-trifluoro-N-(5′-methoxy-5-(4-morpholinyl)-2,3′-bipyridin-3-yl)-acetamide]	227
Cc1c(-c2ccnc(N3CCCC3)c2)nc2cc(F)cc(F)c2c1Nc1cc(N2CCOCC2)cnc1N1CCOCC1 [N-(2,5-di-4-morpholinyl-3-pyridinyl)-5,7-difluoro-3-methyl-2-(2-(1-pyrrolidinyl)-4-pyridinyl)-4-quinolinamine]	40.7
Cc1c(N2CCN(S(=O)(=O)c3ccccc3)CC2)nc2cc(F)cc(F)c2c1Nc1cncc(N2CCOCC2)c1 [5,7-difluoro-3-methyl-N-(5-(4-morpholinyl)-3-pyridinyl)-2-(4-(phenylsulfonyl)-1-piperazinyl)-4-quinolinamine]	33.4
Cc1c(-c2ccc(N3CCCCC3)nc2)nc2cc(F)cc(F)c2c1Nc1cc(N2CCOCC2)cnc1N1CCOCC1 [N-(2,5-di-4-morpholinyl-3-pyridinyl)-5,7-difluoro-3-methyl-2-(6-(1-piperidinyl)-3-pyridinyl)-4-quinolinamine]	44
Cc1c(N2CCN(C(=O)OCC(C)C)CC2)nc2cc(F)cc(F)c2c1Nc1cncc(N2CCOCC2)c1 [2-methylpropyl 4-(5,7-difluoro-3-methyl-4-((5-(4-morpholinyl)-3-pyridinyl)amino)-2-quinolinyl)-1-piperazinecarboxylate]	108
Cc1c(-c2ccccn2)nc2ncccc2c1Nc1cc(N2CCOCC2)ccc1N1CCOCC1 [N-(2,5-di-4-morpholinylphenyl)-3-methyl-2-(2-pyridinyl)-1,8-naphthyridin-4-amine]	582
COC(=O)N1CCN(c2nc3cc(F)cc(F)c3c(Nc3cncc(N4CCOCC4)c3)c2C)CC1 [methyl 4-(5,7-difluoro-3-methyl-4-((5-(4-morpholinyl)-3-pyridinyl)amino)-2-quinolinyl)-1-piperazinecarboxylate]	9.23
Cc1cncc(-c2nc3cc(F)cc(F)c3c(Nc3cc(N4CCOCC4)cnc3N3CCOCC3)c2C)c1 [N-(2,5-di-4-morpholinyl-3-pyridinyl)-5,7-difluoro-3-methyl-2-(5-methyl-3-pyridinyl)-4-quinolinamine]	8.92
Cc1ccc(C(=O)N2CCN(c3nc4cc(F)cc(F)c4c(Nc4cncc(N5CCOCC5)c4)c3C)CC2)cn1 [5,7-difluoro-3-methyl-2-(4-((6-methyl-3-pyridinyl)carbonyl)-1-piperazinyl)-N-(5-(4-morpholinyl)-3-pyridinyl)-4-quinolinamine]	180
Cc1ccc(-c2nc3cc(F)cc(F)c3c(Nc3cncc(N4CCOCC4)c3)c2C)cn1 [5,7-difluoro-3-methyl-2-(6-methyl-3-pyridinyl)-N-(5-(4-morpholinyl)-3-pyridinyl)-4-quinolinamine]	19.1
Cc1c(-c2ccnc(N3CCCC3)c2)nc2cc(F)cc(F)c2c1Nc1cncc(N2CCOCC2)c1 [5,7-difluoro-3-methyl-N-(5-(4-morpholinyl)-3-pyridinyl)-2-(2-(1-pyrrolidinyl)-4-pyridinyl)-4-quinolinamine]	315
Cc1ccc(-c2nc3cc(F)cc(F)c3c(Nc3cc(N4CCOCC4)cnc3N3CCOCC3)c2C)c(C)c1 [2-(2,4-dimethylphenyl)-N-(2,5-di-4-morpholinyl-3-pyridinyl)-5,7-difluoro-3-methyl-4-quinolinamine]	26.8
Cc1c(-c2cccc3c2cnn3C)nc2cc(F)cc(F)c2c1Nc1cc(N2CCOCC2)cnc1N1CCOCC1 [N-(2,5-di-4-morpholinyl-3-pyridinyl)-5,7-difluoro-3-methyl-2-(1-methyl-1H-indazol-4-yl)-4-quinolinamine]	8.6
COc1ccc(-c2ccc(N3CCOCC3)cc2Nc2c(C)c(-c3cc(C)ccn3)nc3cc(F)cc(F)c23)cn1 [5,7-difluoro-N-(2-(6-methoxy-3-pyridinyl)-5-(4-morpholinyl)-phenyl)-3-methyl-2-(4-methyl-2-pyridinyl)-4-quinolinamine]	3.59
Cc1c(-c2cccnc2)nc2cc(F)cc(F)c2c1Nc1cc(N2CCOC[C@@H]2C)cnc1N1CCOCC1 [5,7-difluoro-3-methyl-N-(5-((3S)-3-methyl-4-morpholinyl)-2-(4-morpholinyl)-3-pyridinyl)-2-(3-pyridinyl)-4-quinolinamine]	21.4
Cc1cc(-c2nc3cc(F)cc(F)c3c(Nc3cc(N4CCOCC4)cnc3N3CCOCC3)c2C)ccn1 [N-(2,5-di-4-morpholinyl-3-pyridinyl)-5,7-difluoro-3-methyl-2-(2-methyl-4-pyridinyl)-4-quinolinamine]	26.5
